Reference: patent publication US8809389B2, “Substituted alkynyl phenoxy compounds as new synergists in pesticidal compositions” (Endura S.p.A., priority 2009, dated 2014)
Values joined by “and” are separate entries in the source; they are usually repeats but may differ in a detail not shown here. Equal entries are not always repeated.

Experiments:
[1] = tested on: pollen beetle, Meligethes aeneus; assay: Discriminating dose bioassay: α-cypermethrin in mixture with synergist; assay type: in vivo; details: Brassicogethes aeneus; for mortality at 0.3 ppm: 0.3 ppm α-cypermethrin alone
Experimental: (§1) Two pyrethroid resistant populations originating from two different areas in Poland ‘Rogalin'and lebork’ were collected in July 2008. A putative susceptible population, UK population, was also collected in July 2008 in Hertfordshire, UK. All populations were collected from oilseed rape contained adults only and were kept at room temperature before assays were performed.
Bioassays incorporating the compounds (Compound of Example 2 and Compound of Example 3) dissolved in acetone, were carried out using a diagnostic concentration of α-cypermethrin derived from the above full dose response bioassays in a mixture of 0.01 g L^−1 of the compounds. The concentration of α-cypermethrin used for the discriminating dose bioassays was 0.3 ppm α-cypermethrin for the two polish populations, Rogalin and Lebork and 0.03 ppm α-cypermethrin for UK population. Vials treated with the compounds only, dissolved in acetone and acetone only were used as controls. Ten to 15 replicates were used for each treatment depending on insect numbers within the population. Compounds concentrations chosen conferred no mortality in preliminary bioassays.
(§2) Treated vials including the pollen beetles were stored in constant environment facilities at 18±2° C. and 16L: 8D. All bioassays were scored at an endpoint of 24 h after exposure to the insecticide. Insects incapable of coordinated movement (after gentle touching with a pencil brush if necessary) were scored as dead.

[2] = tested on: pollen beetle, Meligethes aeneus; assay: Full dose response bioassay (α-cypermethrin), coated glass vials, IRAC method no 11; assay type: in vivo; details: for LC50 (lethal concentration of α-cypermethrin to kill 50% of the population): 24 h
Experimental: as §1
To characterise the response of the 3 above pollen beetle populations against α-cypermethrin full dose response bioassays were carried out. The bioassay method used was based on the method recommended by the Insecticide Resistance Action Committee (IRAC method no 11). Briefly, glass vials (5.7 cm height and 2.3 cm diameter) were coated with 0.5 ml of a serial dilutions of insecticide, dissolved in acetone, (α-cypermethrin) and rolled upon a blood-roller (Luckham Multimix Major, Denley Instruments Ltd) at room temperature until the solutions had completely evaporated. Five to 20 non-sexed adult pollen beetles were placed into a vial for each replicate and the top loosely closed with a screw-cap. Three replicates were used at each insecticide concentration, 7 concentrations in all. Vials treated with acetone only were used as controls.
as §2

[3] = target: T1, purified resistance-associated esterase (E4) (Myzus persicae, UniProt P35501); assay: Esterase interference assay (indirect determination of esterase inhibition); assay type: biochemical; details: for Reduction of esterase protection, comparison in words: E4 esterase interference assay, Examples 13 and 16; for Esterase protection (%) after pre-incubation with compound: no esterase = 0%, uninhibited E4 = 100%
T1 construct: 5 g of aphids (stored at −20° C.) were homogenised in 0.02 M phosphate buffer pH 7.0; from tissue; host or cells: whole Myzus persicae aphids, clone 794JZ; homogenate purified over G-25 and DEAE Sepharose Fast Flow
T1 sequence (P35501 24-552): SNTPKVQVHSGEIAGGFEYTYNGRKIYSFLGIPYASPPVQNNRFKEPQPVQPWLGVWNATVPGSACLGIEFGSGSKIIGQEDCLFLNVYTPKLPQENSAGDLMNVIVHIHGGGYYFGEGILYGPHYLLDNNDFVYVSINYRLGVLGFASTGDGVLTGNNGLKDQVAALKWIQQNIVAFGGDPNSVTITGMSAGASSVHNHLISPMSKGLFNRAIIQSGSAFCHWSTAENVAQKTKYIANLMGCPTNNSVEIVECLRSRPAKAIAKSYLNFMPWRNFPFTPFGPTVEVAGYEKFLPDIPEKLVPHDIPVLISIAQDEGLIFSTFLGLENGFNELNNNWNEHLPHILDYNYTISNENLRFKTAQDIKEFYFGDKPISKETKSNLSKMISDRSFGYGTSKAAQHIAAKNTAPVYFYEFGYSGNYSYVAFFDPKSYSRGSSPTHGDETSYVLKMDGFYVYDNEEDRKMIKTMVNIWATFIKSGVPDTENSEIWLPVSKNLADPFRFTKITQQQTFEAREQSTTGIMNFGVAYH
From the text: Measuring the in vitro inhibition is not straight forward, as synergists may bind to a site other than the active site.
The esterase used was the well-characterised resistance associated esterase purified from M. persicae, E4, (aphid clone: 794JZ) as per Devonshire (1977) with some modifications(Devonshire A L, The properties of a carboxylesterase from the peach-potato aphid, Myzus persicae (Sulz.) and its role in conferring insecticide resistance. Biochem J 167: 675-683 (1977)). Briefly, 5 g of aphids (stored at −20° C.) were homogenised in 0.02 M phosphate buffer pH 7.0 and centrifuged at 20 000 g for 10 min. The supernatant was passed through a G-25 column using 0.02M Tris/HCl, pH 8.5 buffer. Unretarded fractions containing esterase activity were further chromatographed through DEAF Sepharose Fast Flow (Amersham Biosciences) and eluted with a linear 0-0.35 M NaCl gradient in 500 ml of Tris/HCl as above. Fractions containing carboxylesterase activity in the form of E4 were concentrated, desalted, and buffer exchanged to 0.02 M phosphate pH 7.0 for storage.
Interactions of the purified resistance-associated esterase (E4) with Compound of Example 2, Compound of Example 3, Compound of Example 4, Compound of Example 9 and Compound of Example 11 were performed using the ‘esterase interference assay’, as described by Khot et al., with some modifications. Devonshire A L, The properties of a carboxylesterase from the peach-potato aphid, Myzus persicae (Sulz.) and its role in conferring insecticide resistance. Biochem J 167: 675-683 (1977)). Briefly, stock solutions of novel synergists (3 mM in acetone) were pre-incubated with pure E4, to give a final concentration of 0.03 mM, for 16 h at 4° C. Aliquots (15 μl ) of E4, E4+Compound of Example 2, E4+Compound of Example 3, E4+Compound of Example 4, E4+Compound of Example 9 and E4+Compound of Example 11 were incubated for 1 h with 60 μl of serial dilutions of azamethiphos in 0.02M phosphate buffer, pH 7, in separate wells of a NUNC microplate. Aliquots (25 p1) of house fly head homogenate (source of AChE) were added to each well and incubated for 15 minutes at room temperature. E4 in acetone and buffer only served as the positive and the negative controls respectively. AChE activity was measured at 405 nm using a Tmax kinetic microplate reader (Molecular Devices, Menlo Park, Calif.). Readings were taken automatically for 10 min at 10 s intervals. The rate (mOD min^−1) was calculated by the integrated software, Softmax Pro 4.6. All treatments were performed in triplicate.
No added esterase is giving 0% esterase protection and uninhibited esterase (E4) is giving 100% protection.
The materials and procedure as stated in Example 13, paragraphs 13.1, 13.1.2, 13.1.2.1 and 13.1.2.2. have been used and the following results have been obtained: […]

Myzus persicae = assay: Topical application bioassay on aphid clones: imidacloprid with or without synergist pre-treatment; details: for RF, resistance factor (LC50 resistant / LC50 susceptible population): imidacloprid; for LC50 (lethal concentration of imidacloprid to kill 50% of the population): imidacloprid alone, topical, scored 72 h
Experimental: Aphid clones were reared on Chinese cabbage (Brassica rapa L. var. Pekinensis c.v Wong Bok) (Brassicaceae) leaves held in small plastic box-cages maintained at 18±2° C. with a 16:8 h light:dark photoperiod (Blackman R L, Variation in the photoperiodic response within natural populations of Myzus persicae (Sulzer). Bull Ent Res 60: 533-546 (1971)).
Clone 4106A is a laboratory insecticide-susceptible standard2 . […] Both aphid clones have been established from single parthenogenetic M. persicae females (Foster S P, Denholm I, Thompson R, Poppy G M, Powell W, Reduced response of insecticide-resistant aphids and attraction of parasitoids to alarm pheromone; a potential fitness trade-off. Bull Ent Res 95: 37-46 (2005)).
12.1.2 Topical Application Bioassay with 5191A Aphid Clone Young apterae were transferred to the abaxial surface of Chinese cabbage leaf discs (10 adults per leaf disc, at least 3 replicates per concentration) held on 1% agar in plastic containers (4 cm in diameter). The upper edge of each container was coated with Fluon (Whitford Plastics, UK) to prevent subsequent aphid escape from the leaf surface. After allowing 2 h for the aphids to settle, each was dosed with 0.25 μl of either 1 g L^−1 Compound of Example 3 dissolved in acetone or acetone only. After 4 h aphids were further treated with 0.25 μl imidacloprid in acetone (96% AR) using a
Burkard microapplicator (Burkard, Rickmansworth, UK). Controls were treated with acetone only. Treated aphids were stored at 18±2° C. and 16 h light: 8 h dark photoperiod. All bioassays were scored at the endpoint of 72 h after treatment. Adults incapable of co-ordinated movement (after gentle touching with a paint brush if necessary) were scored as dead. All bioassays were completed in triplicate.

[4] = second 'TABLE 3' (Example 16), procedure as Example 13
[5] = Table 2 (Example 13), 0.03 mM compound pre-incubated with E4 16 h at 4° C.

CC1(C)C(C=C(Cl)Cl)C1C(=O)OC(C#N)c1cccc(Oc2ccccc2)c1 (stereo not drawn) [α-cypermethrin]
mortality at 0.3 ppm ([1]; 24 h, Lebork): 4.9% | mortality at 0.3 ppm ([1]; 24 h, Rogalin): 2.78% | mortality at 0.03 ppm ([1]; 24 h, UK population, 0.03 ppm α-cypermethrin alone): 13.6% | mortality at 0.3 ppm ([1]; Rogalin and Lebork): ~5% | LC50 (lethal concentration of α-cypermethrin to kill 50% of the population) ([2]; Lebork population (pyrethroid resistant, Poland)): 95.0 ηg/cm^2 | RF, resistance factor (LC50 resistant / LC50 susceptible population) ([2]; Lebork versus UK population): 44 | LC50 (lethal concentration of α-cypermethrin to kill 50% of the population) ([2]; Rogalin population (pyrethroid resistant, Poland)): 65.0 ηg/cm^2 | RF, resistance factor (LC50 resistant / LC50 susceptible population) ([2]; Rogalin versus UK population): 23 and 23.21 | LC50 (lethal concentration of α-cypermethrin to kill 50% of the population) ([2]; UK population (putative susceptible)): 2.80 ηg/cm^2 | RF, resistance factor (LC50 resistant / LC50 susceptible population) ([2]; UK population (reference)): 1

CC#CCOc1cc(OC)c(OC)cc1CCC [Example 8, 1-(but-2-ynyloxy)-6-propyl-3,4-dimethoxybenzene]
Reduction of esterase protection, comparison in words [3]: better activity than compounds 4, 7, respectively | Esterase protection (%) after pre-incubation with compound [3, 4]: 5.09%

C#CCOc1ccc2c(c1)OCO2 [Example 1, 5-(propargyloxy)-benzo[1,3]dioxole, reference compound]
Esterase protection (%) after pre-incubation with compound [3, 5]: 63.9% | Esterase protection (%) after pre-incubation with compound [3, 4]: 63.90%

C#CCOc1cc2c(cc1CCC)OCO2 [Example 4, 5-(propargyloxy)-6-propyl-benzo[1.3]dioxole]
Reduction of esterase protection, comparison in words [3]: worse activity than the compound of Example 3 | Esterase protection (%) after pre-incubation with compound [3, 5]: 2.06% | Esterase protection (%) after pre-incubation with compound [3, 4]: 2.06%

CC#CCOc1cc2c(cc1CCC)CCO2 [Example 11, 6-(but-2-ynyloxy)-5-propyl-2,3-dihydrobenzofuran]
Esterase protection (%) after pre-incubation with compound [3, 5]: −1.17%

C#CCOc1cc(OC)c(OC)cc1CCC [Example 7, 1-(propargyloxy)-6-propyl-3,4-dimethoxybenzene]
Esterase protection (%) after pre-incubation with compound [3, 4]: 15.17%

O=[N+]([O-])NC1=NCCN1Cc1ccc(Cl)nc1 [imidacloprid]
RF, resistance factor (LC50 resistant / LC50 susceptible population) (Myzus persicae; aphid clone 4106A (susceptible reference)): 1 | LC50 (lethal concentration of imidacloprid to kill 50% of the population) (Myzus persicae; aphid clone 4106A (susceptible, S)): 1.6 ppm | RF, resistance factor (LC50 resistant / LC50 susceptible population) (Myzus persicae; aphid clone 5191A versus 4106A): 56.5 | LC50 (lethal concentration of imidacloprid to kill 50% of the population) (Myzus persicae; aphid clone 5191A, FE4(R3) resistant): 90.5 ppm

CC#CCOc1cc2c(cc1COCCOCCOCCCC)OCO2 [Example 9, 5-[2-(2-butoxyethoxy)-ethoxy]methyl-6-(but-2-ynyloxy)-benzo[1.3]dioxole]
Esterase protection (%) after pre-incubation with compound [3, 5]: 2.96%
